Data taken from ChEMBL document CHEMBL1150069, “Ethnobotanical drug discovery based on medicine men's trials in the African savanna: screening of east African plants for antimicrobial activity II” (1993).

How the values were obtained:
Cyberlindnera jadinii = assay: Antimicrobial activity against Candida utilis ATCC 42402 after 2 days by twofold serial broth dilution method; format: functional; conditions: Williopsis jadinii, ATCC 42402, 48 h
Escherichia coli = assay: Antimicrobial activity against Escherichia coli IFO 3545 after 2 days by twofold serial broth dilution method; format: functional; conditions: IFO 3545, 48 h
[1] = system: Rhizopus microsporus var. chinensis; assay: Antimicrobial activity against Rhizopus chinensis IFO 4772 after 2 days by twofold serial broth dilution method; format: functional; conditions: IFO 4772, 48 h
Pseudomonas aeruginosa = assay: Antimicrobial activity against Pseudomonas aeruginosa IAM 1007 after 2 days by twofold serial broth dilution method; format: functional; conditions: IAM 1007, 48 h
Staphylococcus aureus = assay: Antimicrobial activity against Staphylococcus aureus NCTC 8530 after 2 days by twofold serial broth dilution method; format: functional; conditions: NCTC 8530, 48 h
Aspergillus niger = assay: Antimicrobial activity against Aspergillus niger ATCC 6275 after 2 days by twofold serial broth dilution method; format: functional; conditions: ATCC 6275, 48 h
Bacillus subtilis = assay: Antimicrobial activity against Bacillus subtilis ATCC 6633 after 2 days by twofold serial broth dilution method; format: functional; conditions: ATCC 6633, 48 h
Mucor mucedo = assay: Antimicrobial activity against Mucor mucedo IFO 7684 after 2 days by twofold serial broth dilution method; format: functional; conditions: IFO 7684, 48 h
Sclerotinia = assay: Antimicrobial activity against Sclerotinia libertiana Ss after 2 days by twofold serial broth dilution method; conditions: 48 h
Penicillium crustosum = assay: Antimicrobial activity against Penicillium crustosum Thom after 2 days by twofold serial broth dilution method; format: functional; conditions: 48 h
Proteus vulgaris = assay: Antimicrobial activity against Proteus vulgaris IAM 12003 after 2 days by twofold serial broth dilution method; format: functional; conditions: IAM 12003, 48 h
Micrococcus luteus = assay: Antimicrobial activity against Micrococcus luteus IFO 3333 after 2 days by twofold serial broth dilution method; format: functional; conditions: IFO 3333, 48 h
Saccharomyces cerevisiae = assay: Antimicrobial activity against Saccharomyces cerevisiae IFO 0203 after 2 days by twofold serial broth dilution method; format: functional; conditions: IFO 0203, 48 h
[2] = system: Schizosaccharomyces pombe; assay: Antimicrobial activity against Schizosaccharomyces pombe IFO 0342 after 2 days by twofold serial broth dilution method; format: functional; conditions: IFO 0342, 48 h
Wickerhamomyces anomalus = assay: Antimicrobial activity against Hansenula anomala IFO 0136 after 2 days by twofold serial broth dilution method; format: functional; conditions: IFO 0136, 48 h

Measured: MIC

CC(=O)O[C@@H]1C=C(C=O)[C@](O)(C=O)[C@@]2(C)CCCC(C)(C)[C@H]12 [CINNAMODIAL]
not listed: [2] | Wickerhamomyces anomalus
> 100 µg/mL: all other assays above

CC(C)=CCc1cc2c(cc1O)OC[C@H]1c3ccc(O)c(CC=C(C)C)c3O[C@@H]21 [ERYBRAEDIN C]
3.13 µg/mL: Staphylococcus aureus | Bacillus subtilis
> 100 µg/mL: Cyberlindnera jadinii | Escherichia coli | Pseudomonas aeruginosa | Mucor mucedo | Penicillium crustosum | Saccharomyces cerevisiae

CC1(C)C=Cc2cc([C@@H]3CC(=O)c4ccc(O)cc4O3)ccc2O1 [ABYSSINONE I]
> 100 µg/mL: Cyberlindnera jadinii | Escherichia coli | Pseudomonas aeruginosa | Staphylococcus aureus | Bacillus subtilis | Mucor mucedo | Penicillium crustosum | Saccharomyces cerevisiae

CC(C)=CCc1cc(C2CC(=O)c3c(O)cc(O)cc3O2)cc(CC=C(C)C)c1O (stereo not drawn) [PHASEOLLIN]
50 µg/mL: Mucor mucedo
100 µg/mL: Cyberlindnera jadinii | Saccharomyces cerevisiae
> 100 µg/mL: Escherichia coli | Pseudomonas aeruginosa | Penicillium crustosum
25 µg/mL: Staphylococcus aureus | Bacillus subtilis

CC1(C)CCC[C@@]2(C)[C@H]1[C@@H](O)C=C(C=O)[C@]2(O)C=O [MUKAADIAL]
100 µg/mL: Sclerotinia
> 100 µg/mL: all other assays above

CC1(C)CCC[C@]2(C)[C@H](C=O)C(C=O)=CC[C@@H]12 [EPIPOLYGODIAL]
> 100 µg/mL: all assays above

CC(C)=CCc1cc(/C=C/C(=O)c2ccc(O)cc2O)cc(CC=C(C)C)c1O [ABYSSINONE VI]
> 100 µg/mL: Cyberlindnera jadinii | Escherichia coli | Pseudomonas aeruginosa | Staphylococcus aureus | Bacillus subtilis | Mucor mucedo | Penicillium crustosum | Saccharomyces cerevisiae

CC1(C)CCC[C@]2(C)[C@@H](C=O)C(C=O)=CC[C@@H]12 [POLYGODIAL]
25 µg/mL: Aspergillus niger | Penicillium crustosum
0.78 µg/mL: Saccharomyces cerevisiae
6.25 µg/mL: [2] | Mucor mucedo
12.5 µg/mL: [1]
1.56 µg/mL: Cyberlindnera jadinii | Sclerotinia | Wickerhamomyces anomalus
> 100 µg/mL: all other assays above

CC1(C)C=Cc2c(ccc3c2O[C@H]2c4ccc(O)cc4OC[C@@H]32)O1 [PHASEOLIN]
6.25 µg/mL: Bacillus subtilis
> 100 µg/mL: Escherichia coli | Pseudomonas aeruginosa | Penicillium crustosum
12.5 µg/mL: Staphylococcus aureus | Mucor mucedo
50 µg/mL: Cyberlindnera jadinii
25 µg/mL: Saccharomyces cerevisiae

CC(C)=CCc1cc([C@@H]2CC(=O)c3c(O)cc(O)cc3O2)cc(CC=C(C)C)c1O [ABYSSINONE V]
> 100 µg/mL: Cyberlindnera jadinii | Escherichia coli | Pseudomonas aeruginosa | Mucor mucedo | Penicillium crustosum | Saccharomyces cerevisiae
50 µg/mL: Staphylococcus aureus
25 µg/mL: Bacillus subtilis

COc1ccc2c(c1CC=C(C)C)O[C@H]1c3ccc(O)cc3OC[C@@]21O [ERYTHRABYSSIN I]
12.5 µg/mL: Staphylococcus aureus
50 µg/mL: Cyberlindnera jadinii | Saccharomyces cerevisiae
6.25 µg/mL: Bacillus subtilis
> 100 µg/mL: Escherichia coli | Pseudomonas aeruginosa | Penicillium crustosum
25 µg/mL: Mucor mucedo

CC(C)=CCc1cc([C@@H]2CC(=O)c3ccc(O)cc3O2)ccc1O [ABYSSINONE II]
100 µg/mL: Cyberlindnera jadinii | Saccharomyces cerevisiae
> 100 µg/mL: Escherichia coli | Pseudomonas aeruginosa | Penicillium crustosum
50 µg/mL: Staphylococcus aureus | Bacillus subtilis | Mucor mucedo

CC(C)=CCc1c(O)ccc2c1O[C@H]1c3ccc(O)cc3OC[C@@H]21 [PHASEOLLIDIN]
100 µg/mL: Mucor mucedo
> 100 µg/mL: Cyberlindnera jadinii | Escherichia coli | Pseudomonas aeruginosa | Penicillium crustosum | Saccharomyces cerevisiae
25 µg/mL: Bacillus subtilis
50 µg/mL: Staphylococcus aureus

CC1(C)CCC[C@@]2(C)[C@H]1CC=C(C=O)[C@]2(O)C=O [WARBURGANAL]
25 µg/mL: Mucor mucedo
3.13 µg/mL: Cyberlindnera jadinii | Sclerotinia | Saccharomyces cerevisiae
12.5 µg/mL: [2] | Wickerhamomyces anomalus
100 µg/mL: [1]
50 µg/mL: Aspergillus niger | Penicillium crustosum
> 100 µg/mL: all other assays above

C=C1[C@@H](C)CC[C@@]2(C)[C@H]1CC=C(C=O)[C@]2(O)C=O
3.13 µg/mL: Cyberlindnera jadinii | Sclerotinia
100 µg/mL: [1]
1.56 µg/mL: Saccharomyces cerevisiae
25 µg/mL: [2] | Mucor mucedo | Wickerhamomyces anomalus
50 µg/mL: Aspergillus niger | Penicillium crustosum
> 100 µg/mL: all other assays above

CC(C)=CCc1cc([C@@H]2CC(=O)c3ccc(O)cc3O2)cc(CC=C(C)C)c1O [ABYSSINONE IV]
> 100 µg/mL: Cyberlindnera jadinii | Escherichia coli | Pseudomonas aeruginosa | Mucor mucedo | Penicillium crustosum | Saccharomyces cerevisiae
12.5 µg/mL: Bacillus subtilis
25 µg/mL: Staphylococcus aureus
